Where a name gives a salt, the structure may show the parent alone. Activity calls are given as the source filed them.

The target of assay [1] is Aryl hydrocarbon receptor (Homo sapiens, UniProt P35869). The following applies: Potency.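 Also: confirmatory quantitative high-throughput screen measuring activation of the AhR signaling pathway.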
For assay [2], the target named is T1, Mitochondrial peptide methionine sulfoxide reductase (Bos taurus, UniProt P54149). It counts as functional.
Assay [3] concerns the target T1, Mitochondrial peptide methionine sulfoxide reductase. The experiment in a line: Absorbance-based biochemical high throughput dose response assay for activators of Methionine sulfoxide reductase A (MsrA). Format: functional.
The nature of assay [4]: activation of miR-122 Renilla sensor silencing – cell-based, Huh7 psiCHECK-miR122, Renilla luciferase, cherry-picked, dose response (AID 651956).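 Also: huh7 hepatoma cells stably carrying a psiCHECK-2 miR-122 sensor plasmid; renilla luciferase signal reporting endogenous miR-122 activity after 48 h compound exposure.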 It counts as functional.
Assay [5] is described as follows: IGROV1 cell killing – plate reader, dry powder samples, PAX8 inhibitor project, dose response (AID 743043). Format: functional, cell-based. The following applies: IGROV-1.
Assay [6] is described as follows: cytotoxicity in HEK293 background cells – cell-based, dry powder, set 2, counter-screen for EBV LMP1 inhibitor project, dose response (AID 624374). It counts as functional.
For assay [7], the target named is Paired box protein Pax-8 (Homo sapiens, UniProt Q06710). The experiment in a line: PAX8 transcriptional activity inhibition in RMG-I – RMG-I cells, luciferase, cherry-pick, dose response (AID 687027).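 Also: luciferase reporter driven by Pax8 target thyroperoxidase promoter measured by SteadyGlo luminescence.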 Format: functional, cell-based.
Assay [8] in a line: viability loss in LCL cells – cell-based, plate reader, dry powder, set 2, cytotoxicity control, dose response (AID 624367). It counts as functional.
Assay [9] can be described thus: TNFa-induced NF-kB reporter signal decrease – HEK293 LMP1 reporter cells, dry powder, set 2, selectivity assay for EBV LMP1 NF-kB inhibitor project, dose response (AID 624369). Format: functional.
The target of assay [10] is T2, Small ubiquitin-related modifier 1 (Homo sapiens, UniProt P63165). The experiment in a line: SUMO1 protein-protein binding blockers, potency – biochemical, FRET, dose response (AID 624383). Format: functional. As to conditions: read-out: IC50_Mean.
In assay [11] the target is T2, Small ubiquitin-related modifier 1. Briefly: SUMO1 protein interaction blockers, potency – biochemical, fluorescence polarization, uHTS hits, dose response (AID 624382). It counts as functional. As to conditions: read-out: IC50_Mean.
Assay [12] concerns the target Arf-GAP with SH3 domain, ANK repeat and PH domain-containing protein 1 (Homo sapiens, UniProt Q9ULH1). It counts as functional.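 Also: biochemical fluorescence polarization dose–response screen measuring inhibition of ASAP1; ASAP1 GAP domain stimulating GTP hydrolysis by truncated human ARF1.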
For assay [13], the target named is Hepatocyte nuclear factor 4-alpha (Homo sapiens, UniProt P41235). It counts as functional, cell-based.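 Also: biochemical luminescence-based dose-response counterscreen measuring inhibition of HNF4 dimerization, run alongside a screen for blockers of ABHD5–perilipin-5 interaction; split luciferase complementation of HNF4 fusion proteins in cell lysate measuring dimerization.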
Chain of Hepatocyte nuclear factor 4-alpha (P41235 whole entry, the tested form may be a part): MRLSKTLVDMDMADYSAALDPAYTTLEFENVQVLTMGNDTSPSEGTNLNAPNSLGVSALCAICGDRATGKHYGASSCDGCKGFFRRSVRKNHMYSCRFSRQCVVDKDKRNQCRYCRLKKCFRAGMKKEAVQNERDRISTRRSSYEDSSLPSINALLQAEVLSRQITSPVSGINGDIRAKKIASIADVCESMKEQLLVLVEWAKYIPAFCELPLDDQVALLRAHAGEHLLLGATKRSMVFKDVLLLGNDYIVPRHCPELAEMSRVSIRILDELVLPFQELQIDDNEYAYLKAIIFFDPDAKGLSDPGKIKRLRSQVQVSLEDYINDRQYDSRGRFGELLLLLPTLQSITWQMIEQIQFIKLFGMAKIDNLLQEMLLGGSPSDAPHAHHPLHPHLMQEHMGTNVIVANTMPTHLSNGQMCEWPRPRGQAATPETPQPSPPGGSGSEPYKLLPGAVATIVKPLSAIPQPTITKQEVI

T1 sequence (P54149 whole entry): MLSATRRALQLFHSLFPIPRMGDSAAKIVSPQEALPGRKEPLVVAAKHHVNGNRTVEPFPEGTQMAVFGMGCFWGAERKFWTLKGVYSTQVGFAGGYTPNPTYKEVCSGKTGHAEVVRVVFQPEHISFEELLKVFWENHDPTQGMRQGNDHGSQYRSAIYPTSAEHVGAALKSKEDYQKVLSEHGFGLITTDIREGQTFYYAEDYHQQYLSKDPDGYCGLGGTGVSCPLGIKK
T2 sequence (P63165 whole entry): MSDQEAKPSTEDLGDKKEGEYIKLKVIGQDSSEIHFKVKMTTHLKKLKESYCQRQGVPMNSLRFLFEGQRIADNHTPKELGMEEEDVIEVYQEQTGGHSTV
Chain of Paired box protein Pax-8 (Q06710 whole entry): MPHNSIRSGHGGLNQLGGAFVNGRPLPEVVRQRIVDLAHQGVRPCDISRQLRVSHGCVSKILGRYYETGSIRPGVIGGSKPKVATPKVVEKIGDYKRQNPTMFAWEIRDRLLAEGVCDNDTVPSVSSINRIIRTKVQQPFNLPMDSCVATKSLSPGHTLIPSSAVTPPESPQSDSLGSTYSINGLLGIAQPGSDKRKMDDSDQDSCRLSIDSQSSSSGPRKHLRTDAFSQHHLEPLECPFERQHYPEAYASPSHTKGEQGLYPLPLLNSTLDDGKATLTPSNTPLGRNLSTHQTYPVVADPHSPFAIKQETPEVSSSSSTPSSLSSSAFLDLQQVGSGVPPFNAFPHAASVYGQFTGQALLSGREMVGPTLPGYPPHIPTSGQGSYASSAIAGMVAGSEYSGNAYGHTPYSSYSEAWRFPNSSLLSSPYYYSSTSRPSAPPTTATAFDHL
Chain of Aryl hydrocarbon receptor (P35869 whole entry): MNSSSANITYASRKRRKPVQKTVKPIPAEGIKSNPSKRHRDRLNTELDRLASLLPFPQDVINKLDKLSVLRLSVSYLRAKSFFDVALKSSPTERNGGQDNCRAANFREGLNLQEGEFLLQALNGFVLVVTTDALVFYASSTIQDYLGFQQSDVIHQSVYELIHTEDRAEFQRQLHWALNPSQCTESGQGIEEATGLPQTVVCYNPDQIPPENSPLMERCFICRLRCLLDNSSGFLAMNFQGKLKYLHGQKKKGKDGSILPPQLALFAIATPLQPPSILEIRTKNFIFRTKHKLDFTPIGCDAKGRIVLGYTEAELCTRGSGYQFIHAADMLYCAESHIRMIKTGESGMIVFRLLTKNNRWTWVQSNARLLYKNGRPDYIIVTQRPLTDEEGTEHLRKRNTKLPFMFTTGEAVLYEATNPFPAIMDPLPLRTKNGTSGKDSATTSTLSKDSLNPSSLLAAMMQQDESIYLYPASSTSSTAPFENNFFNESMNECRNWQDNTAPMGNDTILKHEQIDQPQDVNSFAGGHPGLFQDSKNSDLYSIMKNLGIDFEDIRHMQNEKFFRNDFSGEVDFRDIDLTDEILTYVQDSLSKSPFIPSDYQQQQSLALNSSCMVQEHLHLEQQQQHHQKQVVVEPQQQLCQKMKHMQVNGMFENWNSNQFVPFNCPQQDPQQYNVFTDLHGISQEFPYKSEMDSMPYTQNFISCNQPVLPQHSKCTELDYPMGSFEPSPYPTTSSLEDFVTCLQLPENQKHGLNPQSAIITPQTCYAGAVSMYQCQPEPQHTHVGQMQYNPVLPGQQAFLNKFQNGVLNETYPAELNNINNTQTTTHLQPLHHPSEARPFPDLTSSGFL
Chain of Arf-GAP with SH3 domain, ANK repeat and PH domain-containing protein 1 (Q9ULH1 whole entry, the tested form may be a part): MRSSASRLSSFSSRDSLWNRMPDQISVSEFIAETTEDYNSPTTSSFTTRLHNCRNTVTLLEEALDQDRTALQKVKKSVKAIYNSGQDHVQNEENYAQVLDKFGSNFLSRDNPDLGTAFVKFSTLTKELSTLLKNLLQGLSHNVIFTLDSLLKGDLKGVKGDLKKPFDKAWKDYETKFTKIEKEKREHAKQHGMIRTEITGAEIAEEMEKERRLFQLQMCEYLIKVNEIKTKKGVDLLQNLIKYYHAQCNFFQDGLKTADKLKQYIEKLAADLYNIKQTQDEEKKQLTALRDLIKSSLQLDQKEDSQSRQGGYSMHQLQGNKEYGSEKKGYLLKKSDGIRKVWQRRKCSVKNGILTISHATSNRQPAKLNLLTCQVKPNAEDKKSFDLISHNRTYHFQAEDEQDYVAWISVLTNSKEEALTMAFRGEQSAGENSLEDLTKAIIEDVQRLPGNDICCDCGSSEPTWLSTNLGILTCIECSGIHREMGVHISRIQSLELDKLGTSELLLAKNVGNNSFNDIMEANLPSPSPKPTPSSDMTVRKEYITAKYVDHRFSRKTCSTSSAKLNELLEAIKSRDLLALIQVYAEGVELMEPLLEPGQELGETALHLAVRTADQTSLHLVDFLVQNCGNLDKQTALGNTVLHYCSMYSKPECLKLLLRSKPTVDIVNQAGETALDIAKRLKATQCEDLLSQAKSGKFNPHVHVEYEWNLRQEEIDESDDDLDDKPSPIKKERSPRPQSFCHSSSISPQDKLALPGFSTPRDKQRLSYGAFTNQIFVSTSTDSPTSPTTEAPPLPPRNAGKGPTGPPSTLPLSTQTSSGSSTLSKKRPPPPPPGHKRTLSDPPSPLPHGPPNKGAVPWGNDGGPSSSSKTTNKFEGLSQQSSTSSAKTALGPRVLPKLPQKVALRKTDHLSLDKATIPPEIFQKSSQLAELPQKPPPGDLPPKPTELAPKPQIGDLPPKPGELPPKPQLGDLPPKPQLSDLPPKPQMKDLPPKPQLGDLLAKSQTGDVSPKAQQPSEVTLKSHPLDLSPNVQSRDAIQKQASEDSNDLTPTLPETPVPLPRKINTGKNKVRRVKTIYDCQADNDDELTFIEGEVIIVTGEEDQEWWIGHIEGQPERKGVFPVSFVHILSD

On to `O=C(O)C1(C(=O)Nc2ccc(Cl)cc2Cl)CC1`, for which the AC50 in assay [1] is 50.1 µM (inconclusive).

With `Sc1nnc(C2CCCCC2)n1/N=C/c1ccccc1Br`, the IC50 in assay [2] was 155 µM (inactive).

Turning to `CO/N=C/c1ccc(N2CCCC2)c([N+](=O)[O-])c1`, in assay [3], the EC50 is > 104 µM (inactive).

Take `CNC(=O)C[C@@H]1CC[C@@H]2[C@@H](COc3ccc(NC(=O)Nc4ccc(F)c(F)c4)cc3C(=O)N2C)O1`: the AC50 in assay [4] was 4.95 µM (active).

Take `O=C(C[C@H]1CC[C@H]2[C@@H](COC[C@@H](O)CN2Cc2ccc3c(c2)OCO3)O1)Nc1ccc(-c2ccccc2)cc1`: the figures for the AC50 in [5] and in assay [7] were 63.5 µM (active) and 5.67 µM (active), respectively. Besides, the AbsAC35 in assay [6] is 148.97 µM; in [8], 77.89 µM; in [9], 57.32 µM.

As for `COc1cc(/C=N/NC(=O)c2ccc(O)cc2)ccc1OCC(=O)Nc1cccc([N+](=O)[O-])c1`, the results for the IC50 in assay [10], in assay [11] and in assay [12] were 3.86 µM (active), > 66.6 µM (inactive) and 25.3 µM (inactive), respectively.

With `CCOc1cc(N)c(Cl)cc1C(=O)NCC1CN(Cc2ccc(F)cc2)CCO1` (stereo not drawn) [MOSAPRIDE CITRATE], the IC50 in assay [13] was 12.7 µM (inactive).
